Laboratory results taken from ChEMBL document CHEMBL1201862, “PubChem BioAssay data set” (2004).
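All cell lines were grown in 96-well plates and treated with compound for 48 hours. The concentration for 50% growth inhibition is given as GI50.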 The source made the active and inactive calls. No stated cut-off is given here; in the data, active = GI50 up to about 1.1 µM and inactive = higher.

Legend:
Assay in all cases: NCI anticancer screen, dose series, 48 h
SN12C = test system: SN12C
SK-MEL-5 = test system: SK-MEL-5
NCI-H226 = test system: NCI-H226
SNB-75 = test system: SNB-75
EKVX = test system: EKVX
LOX IMVI = test system: LOX IMVI
SF-295 = test system: SF-295
HL-60 = test system: HL-60
BT-549 = test system: BT-549
CAKI-1 = test system: CAKI-1
HT-29 = test system: HT-29
Hs-578T = test system: Hs-578T
PC-3 = test system: PC-3
KM12 = test system: KM12
OVCAR-4 = test system: OVCAR-4
HCT-15 = test system: HCT-15
OVCAR-8 = test system: OVCAR-8
ACHN = test system: ACHN
SNB-19 = test system: SNB-19

Row | Structure (SMILES) | GI50 (SN12C) | GI50 (SK-MEL-5) | GI50 (NCI-H226) | GI50 (SNB-75) | GI50 (EKVX) | GI50 (LOX IMVI) | GI50 (SF-295) | GI50 (HL-60) | GI50 (BT-549) | GI50 (CAKI-1) | GI50 (HT-29) | GI50 (Hs-578T) | GI50 (PC-3) | GI50 (KM12) | GI50 (OVCAR-4) | GI50 (HCT-15) | GI50 (OVCAR-8) | GI50 (ACHN) | GI50 (SNB-19)
1 | CSCCC(NC(=O)C(Cc1c[nH]c2ccccc12)NC(=O)CCNC(=O)OC(C)(C)C)C(=O)NC(CC(=O)O)C(=O)NC(Cc1ccccc1)C(N)=O (configuration not stated) | > 50 µM (inactive) | > 50 µM (inactive) | > 50 µM (inactive) | > 50 µM (inactive) | > 50 µM (inactive) | > 50 µM (inactive) | > 50 µM (inactive) | > 50 µM (inactive) | > 50 µM (inactive) | > 50 µM (inactive) | > 50 µM (inactive) | > 50 µM (inactive) | > 50 µM (inactive) | > 50 µM (inactive) | – | – | – | – | –
2 | CC(=O)OCCOCn1c2c(c(=S)[nH]c1=O)CCC2 | > 100 µM (inactive) | > 100 µM (inactive) | > 100 µM (inactive) | > 100 µM (inactive) | > 100 µM (inactive) | > 100 µM (inactive) | > 100 µM (inactive) | > 100 µM (inactive) | > 100 µM (inactive) | > 100 µM (inactive) | > 100 µM (inactive) | > 100 µM (inactive) | > 100 µM (inactive) | > 100 µM (inactive) | > 100 µM (inactive) | > 100 µM | > 100 µM (inactive) | > 100 µM (inactive) | > 100 µM (inactive)
3 | COc1cc(C2S/C(=C/c3ccccc3)C(=O)N2c2ccc(Cl)c(Cl)c2)cc(OC)c1OC (configuration not stated) | > 61.4 µM (inactive) | 30.1 µM (inactive) | 29.4 µM (inactive) | – | 23.1 µM (inactive) | 19.2 µM (inactive) | 15.8 µM (inactive) | 15.7 µM (inactive) | 42.3 µM (inactive) | > 70.8 µM (inactive) | 55.5 µM (inactive) | 15 µM (inactive) | 20.5 µM (inactive) | 18.1 µM (inactive) | 60.8 µM (inactive) | 18.7 µM | > 72.3 µM (inactive) | 18.7 µM (inactive) | 59.2 µM (inactive)
4 | Nc1c2ccccc2nc2ccc3c(=O)cc(-c4ccccc4)oc3c12 | 0.979 µM (active) | 1.52 µM (inactive) | 1.31 µM (inactive) | 1.76 µM (inactive) | 1.34 µM (inactive) | 0.406 µM (active) | 0.719 µM (active) | 0.977 µM (active) | 2.8 µM (inactive) | 1.33 µM (inactive) | 0.465 µM (active) | 1.9 µM (inactive) | 1.26 µM (inactive) | 0.596 µM (active) | 0.426 µM (active) | 1.02 µM | 0.611 µM (active) | 1.12 µM (active) | 1.26 µM (inactive)
5 | O=C1C(Sc2ccc3ccccc3c2)=C(Sc2ccc3ccccc3c2)C(=O)c2ccccc21 | 12.1 µM (inactive) | 2.81 µM (inactive) | 13.9 µM (inactive) | 14 µM (inactive) | 10.5 µM (inactive) | 11.4 µM (inactive) | – | 1.1 µM (active) | 12 µM (inactive) | – | 15.6 µM (inactive) | 8.57 µM (inactive) | 14.4 µM (inactive) | – | 3.47 µM (inactive) | 9.06 µM | 10.5 µM (inactive) | 4.55 µM (inactive) | 8.09 µM (inactive)
6 | C=CCN1C(=O)C[C@H](Cc2ccccc2)NC(=O)C[C@H](Cc2ccccc2)N(CC=C)C(=O)C[C@H](Cc2ccccc2)NC(=O)C[C@@H]1Cc1ccccc1 | 5.7 µM (inactive) | 20.7 µM (inactive) | 14 µM (inactive) | 3.92 µM (inactive) | 0.942 µM (active) | 3.99 µM (inactive) | 23.6 µM (inactive) | 3.35 µM (inactive) | 95.5 µM (inactive) | 5.15 µM (inactive) | 5.19 µM (inactive) | > 100 µM (inactive) | 3.1 µM (inactive) | 26 µM (inactive) | 4.6 µM (inactive) | 12.2 µM | 39.4 µM (inactive) | – | > 100 µM (inactive)
7 | COC(=O)C1SC(N(C)c2ccccc2)=NC12c1ccccc1Nc1ccccc12 (configuration not stated) | 22.4 µM (inactive) | 12.9 µM (inactive) | 20.7 µM (inactive) | 25.8 µM (inactive) | 22.8 µM (inactive) | 19.1 µM (inactive) | 17.2 µM (inactive) | 12.7 µM (inactive) | 15.9 µM (inactive) | 23.8 µM (inactive) | 19.3 µM (inactive) | 14.5 µM (inactive) | 16.3 µM (inactive) | 18.3 µM (inactive) | 19.7 µM (inactive) | 13.6 µM | 8.89 µM (inactive) | 31 µM (inactive) | 23.9 µM (inactive)
8 | CC(C)=CCC/C(C)=C/CC/C(C)=C/CC/C(C)=C/C=C/C=C(\C)CC/C=C(\C)CC/C=C(\C)CCC=C(C)C | > 39.4 µM (inactive) | 44.1 µM (inactive) | > 100 µM (inactive) | > 71.6 µM (inactive) | 32.3 µM (inactive) | 21.2 µM (inactive) | > 100 µM (inactive) | 3.02 µM (inactive) | > 100 µM (inactive) | 16.8 µM (inactive) | > 100 µM (inactive) | > 82.6 µM (inactive) | > 81.5 µM (inactive) | 31.8 µM (inactive) | > 57.4 µM (inactive) | > 100 µM | > 63 µM (inactive) | 31.5 µM (inactive) | > 100 µM (inactive)
9 | CSc1ccc(/C=C2\CNC/C(=C\c3ccc(SC)cc3)C2=O)cc1 | > 139 µM (inactive) | > 371 µM (inactive) | 40.6 µM (inactive) | 15 µM (inactive) | > 170 µM (inactive) | – | 29.4 µM (inactive) | > 74.3 µM (inactive) | > 371 µM (inactive) | – | – | 64.1 µM (inactive) | > 100 µM (inactive) | – | – | > 179 µM | 52.4 µM (inactive) | 120 µM (inactive) | 26.7 µM (inactive)
10 | O=c1oc2c([N+](=O)[O-])cc([N+](=O)[O-])cc2c2ccccc12 | > 100 µM (inactive) | > 100 µM (inactive) | > 100 µM (inactive) | > 100 µM (inactive) | > 100 µM (inactive) | > 100 µM (inactive) | > 100 µM (inactive) | > 100 µM (inactive) | 59.6 µM (inactive) | > 100 µM (inactive) | > 100 µM (inactive) | > 100 µM (inactive) | > 100 µM (inactive) | – | > 100 µM (inactive) | > 100 µM | > 100 µM (inactive) | > 100 µM (inactive) | > 100 µM (inactive)
11 | NC(=O)CNC(=O)[C@@H]1CC(OCCC(=O)O)CN1C(=O)C1CCCN1C(=O)OCc1ccccc1 (some centres not stated) | > 100 µM (inactive) | > 100 µM (inactive) | > 100 µM (inactive) | > 100 µM (inactive) | 2.74 µM (inactive) | > 100 µM (inactive) | > 100 µM (inactive) | > 100 µM (inactive) | > 100 µM (inactive) | – | > 100 µM (inactive) | > 100 µM (inactive) | > 100 µM (inactive) | > 100 µM (inactive) | > 100 µM (inactive) | > 100 µM | > 100 µM (inactive) | > 100 µM (inactive) | > 100 µM (inactive)
